Test results from ChEMBL document CHEMBL1201862, “PubChem BioAssay data set” (2004).
Activity calls are given as the source filed them.

Legend:
INS1 = experiment: beta cell apoptosis inhibitors, cytokine rescue, dose response, luminescence, retest (AID 449756); format: functional, cell-based; settings: Rattus norvegicus;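 further: cell death triggered by IL-1 beta plus TNF-alpha plus IFN-gamma mixture; protective hits raise ATP signal compared with cytokine alone wells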
Beta-galactosidase = Beta-galactosidase (Escherichia coli, UniProt Q8VNN2); format: functional
[1] = biological target: T1, Kappa-type opioid receptor (Homo sapiens, UniProt P41145); format: functional
CHO = experiment: cytotoxicity in TLR9-MyD88 CHO cells, dose response, cytotoxicity control for TLR9-MyD88 binding inhibitor project, cell-based, luminescence (AID 588339); format: functional, hamster; settings: Cricetulus griseus;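 further: CHO cells stably coexpressing TLR9 and MyD88 fusions from primary screen; compound exposure lasted 48 hours before viability readout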
Aminopeptidase N = biological target: T2, Aminopeptidase N (Plasmodium falciparum FcB1/Columbia, UniProt O96935); experiment: P. falciparum M1AAP inhibitors, biochemical, fluorogenic H-Leu-NHMec substrate, 1536-well (AID 1445); parameters: species or system Plasmodium falciparum 3D7, 3D7
T2 sequence (O96935 whole entry): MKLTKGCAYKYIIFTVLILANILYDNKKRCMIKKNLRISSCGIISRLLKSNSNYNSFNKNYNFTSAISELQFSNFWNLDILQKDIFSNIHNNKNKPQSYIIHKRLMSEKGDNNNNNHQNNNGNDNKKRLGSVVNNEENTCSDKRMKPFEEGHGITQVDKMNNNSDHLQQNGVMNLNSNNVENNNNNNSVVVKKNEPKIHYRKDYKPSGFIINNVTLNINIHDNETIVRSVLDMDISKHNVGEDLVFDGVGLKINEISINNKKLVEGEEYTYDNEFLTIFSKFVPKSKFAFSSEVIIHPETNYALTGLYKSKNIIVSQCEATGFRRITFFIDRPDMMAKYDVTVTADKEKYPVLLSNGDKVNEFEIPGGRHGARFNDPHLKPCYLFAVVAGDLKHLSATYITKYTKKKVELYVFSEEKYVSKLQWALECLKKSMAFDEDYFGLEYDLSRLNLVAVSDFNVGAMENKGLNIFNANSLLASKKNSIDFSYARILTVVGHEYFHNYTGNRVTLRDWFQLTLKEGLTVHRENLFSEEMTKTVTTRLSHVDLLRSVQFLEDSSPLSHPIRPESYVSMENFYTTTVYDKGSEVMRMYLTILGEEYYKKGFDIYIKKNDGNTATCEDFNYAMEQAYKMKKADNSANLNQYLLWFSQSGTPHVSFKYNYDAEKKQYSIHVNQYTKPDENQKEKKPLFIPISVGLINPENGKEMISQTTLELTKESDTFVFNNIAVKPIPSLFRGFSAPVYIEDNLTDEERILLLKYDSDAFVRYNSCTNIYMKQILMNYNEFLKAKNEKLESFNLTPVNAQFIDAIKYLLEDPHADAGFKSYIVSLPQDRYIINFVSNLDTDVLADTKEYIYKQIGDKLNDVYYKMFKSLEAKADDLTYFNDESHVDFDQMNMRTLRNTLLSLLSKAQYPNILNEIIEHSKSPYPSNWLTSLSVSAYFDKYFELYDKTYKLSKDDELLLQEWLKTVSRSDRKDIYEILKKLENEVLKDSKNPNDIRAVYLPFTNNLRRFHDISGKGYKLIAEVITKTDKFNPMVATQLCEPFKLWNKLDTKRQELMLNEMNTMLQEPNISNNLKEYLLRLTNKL

[2] = biological target: T1, Kappa-type opioid receptor; format: functional; remark: listed apart in the source
[3] = Fluorescence-based cell-based high throughput dose response assay for inhibitors of the interaction of nucleotide-binding oligomerization domain containing 2 (NOD2) and the receptor-interacting serine-threonine kinase 2 (RIPK2).; format: functional; settings: Homo sapiens
Beta Lactamase = Beta Lactamase (Pseudomonas aeruginosa, UniProt Q932Y6); experiment: beta-lactamase reporter inhibitor potency, dose response, artefact control for TLR9-MyD88 binding inhibitor project, BLA reporter cells, FRET fluorescence (AID 588341); format: cell-based;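 further: cell based assay in CHO-K1 cells stably expressing beta-lactamase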
[4] = biological target: Dual specificity tyrosine-phosphorylation-regulated kinase 1A (Rattus norvegicus, UniProt Q63470); format: biochemical, Homo sapiens
[5] = biological target: T3, Tyrosine-protein phosphatase non-receptor type 22 (Homo sapiens, UniProt Q9Y2R2); experiment: inhibitors of LYP phosphatase, biochemical, fluorescence intensity, uHTS (AID 1779)
T3 sequence (Q9Y2R2 whole entry): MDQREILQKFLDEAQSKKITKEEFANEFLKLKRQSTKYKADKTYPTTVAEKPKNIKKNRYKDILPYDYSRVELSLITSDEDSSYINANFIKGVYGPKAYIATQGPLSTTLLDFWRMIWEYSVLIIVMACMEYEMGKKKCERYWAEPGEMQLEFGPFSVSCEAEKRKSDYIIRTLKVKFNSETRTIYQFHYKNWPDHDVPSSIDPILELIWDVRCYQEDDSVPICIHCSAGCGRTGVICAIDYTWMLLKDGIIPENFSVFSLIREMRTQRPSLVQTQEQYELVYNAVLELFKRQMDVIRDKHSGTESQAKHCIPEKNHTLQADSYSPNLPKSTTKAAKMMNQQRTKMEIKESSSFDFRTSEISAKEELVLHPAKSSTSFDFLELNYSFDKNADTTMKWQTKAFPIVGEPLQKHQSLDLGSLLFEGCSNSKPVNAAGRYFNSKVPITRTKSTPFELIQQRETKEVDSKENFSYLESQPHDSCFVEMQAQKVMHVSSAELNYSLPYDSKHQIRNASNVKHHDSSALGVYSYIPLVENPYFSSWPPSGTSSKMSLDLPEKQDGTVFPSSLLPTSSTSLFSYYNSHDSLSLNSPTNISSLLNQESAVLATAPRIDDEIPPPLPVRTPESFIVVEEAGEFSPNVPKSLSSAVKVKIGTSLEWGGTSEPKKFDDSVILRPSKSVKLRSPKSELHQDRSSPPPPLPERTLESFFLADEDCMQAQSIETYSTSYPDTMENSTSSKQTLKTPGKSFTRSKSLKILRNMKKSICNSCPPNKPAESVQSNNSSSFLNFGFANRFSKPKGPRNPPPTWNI

[6] = biological target: T4, Carboxy-terminal domain RNA polymerase II polypeptide A small phosphatase 1 (Homo sapiens, UniProt Q9GZU7); experiment: inhibitors of CTDSP1, concentration-response testing, biochemical assay, absorbance-based, actives from ultra-high-throughput screening (AID 540297); format: functional
T4 sequence (Q9GZU7 whole entry): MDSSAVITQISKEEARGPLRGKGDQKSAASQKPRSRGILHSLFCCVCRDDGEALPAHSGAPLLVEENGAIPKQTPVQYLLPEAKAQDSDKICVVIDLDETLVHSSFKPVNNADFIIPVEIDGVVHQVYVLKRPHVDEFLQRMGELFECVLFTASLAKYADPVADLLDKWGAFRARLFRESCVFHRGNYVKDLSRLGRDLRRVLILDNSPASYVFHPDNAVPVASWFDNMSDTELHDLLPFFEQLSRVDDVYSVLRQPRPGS

[7] = biological target: T3, Tyrosine-protein phosphatase non-receptor type 22; format: functional
[8] = biological target: T5, Tyrosine-protein phosphatase non-receptor type 7 (Homo sapiens, UniProt P35236); format: functional
T5 sequence (P35236 whole entry): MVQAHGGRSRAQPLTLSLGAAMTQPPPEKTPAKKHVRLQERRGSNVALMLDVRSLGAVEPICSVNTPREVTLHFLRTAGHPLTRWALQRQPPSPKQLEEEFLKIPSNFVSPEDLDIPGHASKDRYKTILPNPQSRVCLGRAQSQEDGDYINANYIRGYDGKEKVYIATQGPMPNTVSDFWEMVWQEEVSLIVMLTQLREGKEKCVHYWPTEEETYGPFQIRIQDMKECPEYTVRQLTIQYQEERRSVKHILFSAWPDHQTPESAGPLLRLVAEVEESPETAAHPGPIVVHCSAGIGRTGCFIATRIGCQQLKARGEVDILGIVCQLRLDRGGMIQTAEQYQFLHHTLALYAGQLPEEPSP

[9] = biological target: T3, Tyrosine-protein phosphatase non-receptor type 22; format: functional; remark: listed apart in the source
[10] = biological target: Envelope glycoprotein gp160 (Human immunodeficiency virus 1, UniProt Q6QLK5); experiment: inhibitors of HIV fusion peptide binding, primary screen, biochemical, uHTS, fluorescence dequenching (AID 1986)
[11] = HIV-1 Env-mediated cell fusion inhibitors, dose response, CCR5-tropic Env (AID 2279); format: functional
Streptococcus = experiment: Group A Streptococcus viability loss, dose response, counter-screen for streptokinase expression inhibitor project, luminescence, BacTiterGlo (AID 1915); format: functional, organism-based;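 further: potency for reduction of bacterial viability or growth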
[12] = system: Streptococcus sp. 'group A'; experiment: growth inhibition of control SK(-) GAS strain, dose response, counter-screen for streptokinase expression inhibitor project, luminescence, kanamycin, BacTiterGlo, confirmation (AID 1900); format: functional, organism-based
[13] = biological target: T6, Long-chain-fatty-acid--AMP ligase FadD28 (Mycobacterium tuberculosis, UniProt P9WQ59); experiment: Fluorescence polarization aasay to screen for inhibitors that compete for the binding of FadD28 to a bisubstrate Measured in Biochemical System Using Plate Reader - 2147-01_Inhibitor_Dose_CherryPick_Activity.; format: functional, Mycobacterium tuberculosis H37Rv
T6 sequence (P9WQ59 whole entry): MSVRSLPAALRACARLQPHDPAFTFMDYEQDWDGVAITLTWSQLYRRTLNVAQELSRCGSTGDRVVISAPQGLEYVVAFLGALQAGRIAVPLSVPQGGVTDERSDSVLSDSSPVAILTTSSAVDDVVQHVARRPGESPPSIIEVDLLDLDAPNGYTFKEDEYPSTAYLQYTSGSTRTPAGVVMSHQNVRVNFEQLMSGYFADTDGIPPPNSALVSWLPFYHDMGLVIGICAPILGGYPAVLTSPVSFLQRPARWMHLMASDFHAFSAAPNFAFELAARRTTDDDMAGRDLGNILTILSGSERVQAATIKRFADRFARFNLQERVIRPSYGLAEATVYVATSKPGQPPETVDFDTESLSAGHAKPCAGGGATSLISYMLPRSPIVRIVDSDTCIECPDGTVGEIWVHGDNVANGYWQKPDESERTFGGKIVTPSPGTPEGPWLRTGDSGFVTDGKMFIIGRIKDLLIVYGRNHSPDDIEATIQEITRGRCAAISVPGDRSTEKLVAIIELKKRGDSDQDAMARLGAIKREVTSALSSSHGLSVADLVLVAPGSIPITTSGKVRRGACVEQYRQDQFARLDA

T1 sequence (P41145 whole entry, the tested form may be a part): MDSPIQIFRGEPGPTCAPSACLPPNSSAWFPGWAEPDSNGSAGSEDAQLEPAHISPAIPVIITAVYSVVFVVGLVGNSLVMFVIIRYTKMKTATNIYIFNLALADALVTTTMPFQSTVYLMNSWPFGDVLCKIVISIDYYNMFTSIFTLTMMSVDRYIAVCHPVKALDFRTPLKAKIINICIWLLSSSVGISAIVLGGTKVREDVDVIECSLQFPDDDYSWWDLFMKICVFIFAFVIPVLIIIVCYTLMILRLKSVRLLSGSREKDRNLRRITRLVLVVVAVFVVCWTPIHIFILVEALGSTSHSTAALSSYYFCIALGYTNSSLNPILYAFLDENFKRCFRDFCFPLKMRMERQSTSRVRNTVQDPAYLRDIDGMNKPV
Sequence of Envelope glycoprotein gp160 (Q6QLK5 whole entry, the tested form may be a part): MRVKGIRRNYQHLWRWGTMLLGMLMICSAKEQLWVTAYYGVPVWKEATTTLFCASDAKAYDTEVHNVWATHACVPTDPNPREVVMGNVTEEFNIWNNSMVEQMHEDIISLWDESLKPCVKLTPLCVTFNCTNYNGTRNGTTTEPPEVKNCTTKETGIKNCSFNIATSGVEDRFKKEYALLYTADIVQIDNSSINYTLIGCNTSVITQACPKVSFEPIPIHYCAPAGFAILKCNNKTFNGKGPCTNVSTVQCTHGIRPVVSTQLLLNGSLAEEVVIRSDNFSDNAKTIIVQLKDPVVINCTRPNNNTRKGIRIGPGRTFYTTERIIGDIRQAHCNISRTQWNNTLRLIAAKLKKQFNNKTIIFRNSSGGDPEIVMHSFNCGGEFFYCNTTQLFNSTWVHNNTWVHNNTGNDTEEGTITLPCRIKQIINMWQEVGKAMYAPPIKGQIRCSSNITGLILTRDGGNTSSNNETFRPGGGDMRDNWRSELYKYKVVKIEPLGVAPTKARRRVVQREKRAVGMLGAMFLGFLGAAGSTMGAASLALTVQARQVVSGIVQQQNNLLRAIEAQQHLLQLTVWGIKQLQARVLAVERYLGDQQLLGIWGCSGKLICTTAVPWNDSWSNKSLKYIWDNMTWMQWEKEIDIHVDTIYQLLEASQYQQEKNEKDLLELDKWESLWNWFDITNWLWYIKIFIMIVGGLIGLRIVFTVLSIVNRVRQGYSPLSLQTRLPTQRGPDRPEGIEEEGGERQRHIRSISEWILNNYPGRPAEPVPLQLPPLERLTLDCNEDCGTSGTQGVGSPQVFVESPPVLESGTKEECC
Sequence of Beta-galactosidase (Q8VNN2 whole entry): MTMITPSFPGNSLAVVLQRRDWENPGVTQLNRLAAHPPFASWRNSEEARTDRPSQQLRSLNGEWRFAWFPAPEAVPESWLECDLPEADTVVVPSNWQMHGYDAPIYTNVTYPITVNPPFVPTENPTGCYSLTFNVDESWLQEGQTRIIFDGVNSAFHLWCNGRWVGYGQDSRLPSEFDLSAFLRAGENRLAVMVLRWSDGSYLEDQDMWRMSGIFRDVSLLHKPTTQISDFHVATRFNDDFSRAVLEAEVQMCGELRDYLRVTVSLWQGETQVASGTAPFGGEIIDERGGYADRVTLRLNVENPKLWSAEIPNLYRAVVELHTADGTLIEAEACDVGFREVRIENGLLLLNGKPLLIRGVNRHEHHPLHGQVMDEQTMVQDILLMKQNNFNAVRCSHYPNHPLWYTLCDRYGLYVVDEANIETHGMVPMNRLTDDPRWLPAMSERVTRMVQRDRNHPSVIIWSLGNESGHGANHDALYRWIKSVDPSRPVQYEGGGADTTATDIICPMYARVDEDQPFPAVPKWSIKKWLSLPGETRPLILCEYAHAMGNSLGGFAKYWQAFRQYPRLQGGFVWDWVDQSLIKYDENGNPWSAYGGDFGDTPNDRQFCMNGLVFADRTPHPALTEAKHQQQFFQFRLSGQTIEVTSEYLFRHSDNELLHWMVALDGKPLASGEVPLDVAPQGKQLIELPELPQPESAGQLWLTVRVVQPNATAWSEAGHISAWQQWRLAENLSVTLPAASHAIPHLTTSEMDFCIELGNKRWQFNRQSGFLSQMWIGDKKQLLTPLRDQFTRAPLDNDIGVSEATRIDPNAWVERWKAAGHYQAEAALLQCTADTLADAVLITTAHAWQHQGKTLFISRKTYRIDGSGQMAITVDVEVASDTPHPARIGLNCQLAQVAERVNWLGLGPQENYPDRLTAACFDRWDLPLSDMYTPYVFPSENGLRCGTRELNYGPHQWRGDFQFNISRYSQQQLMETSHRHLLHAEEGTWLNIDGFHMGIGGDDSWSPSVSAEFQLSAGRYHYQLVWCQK
Sequence of Beta Lactamase (Q932Y6 whole entry): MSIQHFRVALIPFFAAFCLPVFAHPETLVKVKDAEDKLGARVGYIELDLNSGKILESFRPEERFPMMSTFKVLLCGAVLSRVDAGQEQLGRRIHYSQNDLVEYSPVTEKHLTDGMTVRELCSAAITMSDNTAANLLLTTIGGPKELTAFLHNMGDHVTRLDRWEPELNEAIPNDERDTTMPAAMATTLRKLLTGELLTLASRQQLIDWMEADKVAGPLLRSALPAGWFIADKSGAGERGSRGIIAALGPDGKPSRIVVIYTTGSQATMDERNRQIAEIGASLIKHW

N#CC(C#N)=C1C=CC=CN1/C(=C\c1ccco1)C(=O)c1ccccc1
AC50 (INS1): 7.4 µM (active)
EC50 (Beta-galactosidase): > 31.5 µM (inactive)
IC50 [1]: 4.86 µM (active)
IC50 (CHO): 1.64 µM (active)
IC50 (Aminopeptidase N): 65.2 µM (active)
IC50 [2]: 18.9 µM
IC50 [3]: 1.02 µM (active)
IC50 (Beta Lactamase): 15.9 µM (inactive)
AC50 [4]: 5.46 µM (active)

CCOc1cc(/C=C2/NC(=O)NC2=O)cc(Br)c1OCc1ccc(C(=O)O)cc1
IC50 [5]: 8.82 µM (active)
IC50 [6]: 5.9 µM (active)
IC50 [7]: 2.39 µM (active)
IC50 [8]: 4.2 µM (active)
IC50 [9]: 5.76 µM (active)

Oc1cc(-c2ccccc2)nc2c(-c3ccccc3)c(C(F)(F)F)nn12
IC50 [10]: 17.5 µM (active)
IC50 [11]: > 50 µM (active)
EC50 (Streptococcus): 4.84 µM (active)
EC50 [12]: 3.47 µM (active)
AC50 [13]: 54.1 µM (active)
